Measured values as given in US7968097B2, “Identification of Hla-A2-presented T-cell epitopes derived from the oncofoetal antigen-immature laminin receptor protein and uses thereof” (Immatics Biotechnologies GmbH, priority 2005, dated 2011).
Where “and” joins values, the source holds several entries; their conditions need not be identical. Equal values may be shown once. Entries after “also recorded” stand apart in the source; their conditions may differ.

Tests used:
[1] = system: T cells of HLA-A*0201+ patients with hematological malignancies; assay: IFN-γ ELISPOT, pooled HLA-A*0201+ AML, CLL and multiple myeloma patients; type: cell-based, human; conditions: 50 HLA-A*0201+ patients with hematological malignancies
Method: To determine the frequency of iLR1- and iLR2-specific T cells in HLAA*0201^+ AML, CLL and multiple myeloma patients, ELISPOT IFNI’ secretion assay (Tables 3-5) were performed.

[2] = system: CD8+ lymphocytes from peripheral blood of HLA-A2+ donors; assay: Tetramer analysis of microsphere driven expansion of peptide-specific CD8+ lymphocytes; type: cell-based, human; conditions: for Evaluable donors with clearly positive T-cell responses: of 5 evaluable HLA-A2+ donors, microspheres with anti-CD28 plus high density A*0201/peptide; for Evaluable stimulations with clearly positive T-cell responses: of 53 (RPS-001) or 54 (RPS-002) evaluable stimulations among all evaluable donors
Excerpt: 1×10^6 CD8+ enriched PBMCs per well of the healthy HLA-A2+ donor HBC-065 were stimulated weekly in one well with microspheres coupled to anti-CD28 plus high density tumor antigen A*0201/RPS-001 (upper panel) or high density tumor antigen A*0201/RPS-002 (lower panel) as shown before [Walter, S, et al. Cutting Edge: Predetermined avidity of human CD8 T cells expanded on calibrated MHC/anti-CD28-coated microspheres. J. Immunol. 171(10):4974-8, 2003] with minor modifications. After three stimulations in vitro, cells of both wells were stained with antibody CD8 FITC plus tetramer A*0201/RPS-001 APC and A*0201/RPS-002 PE. Cells are gated on the lymphocyte population (left and middle panel) or on the CD8+ lymphocyte population (right panel). Numbers represent percentage of tetramer^+ within CD8+ lymphocytes. RPS-001=LLAARAIVAI (SEQ ID-No. 1); RPS-002=ALCNTDSPL (SEQ ID-No. 2)
Table 6: Summary of tetramer analysis of microsphere driven expansions of A2/RPS-001 and A2/RPS-002 specific CD8^+ lymphocytes from peripheral blood. 1×10^6 CD8^+ enriched PBMCs per well were stimulated as in FIG. 12 with microspheres coupled to anti-CD28 plus high density tumor antigen A*0201/RPS-001 or high density tumor antigen A*0201/RPS-002. Indicated are number of evaluable HLA-A2^+ donors, number of evaluable donors with at least one clearly positive response, number of evaluable stimulations among all evaluable donors and number of evaluable stimulations with clearly positive responses. RPS001=LLAARAIVAI (SEQ ID-NO: 1); RPS-002=ALCNTDSPL (SEQ ID-NO: 2)

[3] = system: hematological tumor cell lines (K562, IM9, Karpas-422, Balm-3, U266, REH, Ramos, MEC-1); assay: 51Chromium release assay, peptide-specific CTL on tumor cell lines; type: cell-based, human; conditions: for cytolytic activity of peptide-specific CTL lines: HLA-A*0201+ hematological tumor lines, primary malignant AML blasts and CLL cells; for recognition of cell lines by peptide-specific T cells: K562, IND/IM9, Karpas-422, Balm-3, U266, REH, MEC-1, Ramos also for ILR2
Excerpt: (§1) CTL derived from healthy HLA-A*0201^+ individuals were generated using a protocol described elsewhere (Zeis M, Siegel S, Schmitz M et al. Induction of cytotoxic T lymphocytes against hematologic neoplasms by survivin RNA-transfected dendritic cells. J Immunol. 2003; 170, 5391-5397.). For the induction of autologous OFA/ILR, peptide-specific CTL obtained from patients with AML and CLL, CD8^+ T cells were separated from PBMC using immunomagnetic beads (MACS®, Miltenyi, Bergisch-Gladbach, Germany), cultured with autologous OFA/iLR peptide-pulsed fully matured DC and restimulated with autologous peptide-pulsed PBMC in the presence of IL-2 (1 ng/ml, CellConcepts, Weisskirch, Germany). After at least four weekly restimulations, CTL reactivity was determined in a conventional 4 h ^51Chromium release assay. Cold target inhibition assays and antibody blocking experiments were performed as previously described (Zeis M, Siegel S, Schmitz M et al. Induction of cytotoxic T lymphocytes against hematologic neoplasms by survivin RNA-transfected dendritic cells. J Immunol. 2003; 170, 5391-5397.).
T cells recognizing the ILR1-peptide were tested on K562 [human pro-erythroblastic leukemia cell-line, also known as chronic myelogenous leukemia (CML) cell line, which, due to extremely low levels of HLA, functions as a control for excluding NK cells as effector cells], IND (human B lymphoblastoid cell line), Karpas-422 (human B cell lymphoma), Balm-3 (human non-Burkitt B-lymphoma cell line), U266 (human multiple myeloma), REH (Human B cell precursor leukemia), MEC-1 (human chronic B cell leukemia). The same T cells were used to test autologous and allogeneic PBMC from healthy donors as controls. […] The response is not directed against allogeneic major or minor histocompatibility complex antigens. • 3. ILR1 peptide is recognized in an HLA-restricted fashion. • 4. The restriction is allele-specific (specific for A*02). Target: AML
T cells recognizing the ILR2-peptide (FIG. 6) were tested on K562 [human proerythroblastic leukemia cell-line, also known as chronic myelogenous leukemia (CML) cell line, which, due to extremely low levels of HLA, functions as a control for excluding NK cells as effector cells], IM9 (human B lymphoblastoid cell line), Karpas-422 (human B cell lymphoma), Balm-3 (human non-Burkitt B-lymphoma cell line), U266 (human multiple myeloma), REH (Human B cell precursor leukemia), Ramos (synonym: RA 1; a human Burkittt's lymphoma B lymphoblast), MEC-1 (human chronic B cell leukemia). The same T cells were used to test autologous and allogeneic PBMC from healthy donors as controls.

[4] = system: tumor cells from AML patients; assay: 51Chromium release assay, peptide-specific CTL on tumor cells from AML patients; type: cell-based, human; conditions: for recognition of AML cells from A*02-negative patients by peptide-specific T cells / recognition of AML cells from A*02-positive patients by peptide-specific T cells: 1st and 2nd experiment; for A*02-positive AML patients in whom the peptide is a tumor-associated antigen: summary of two sets of experiments
Excerpt: as §1
T cells specific for HLA-A*02-restricted ILR1 were tested on tumor cells from AML patients (4 patients; samples AML-01, -02, -03, -06) (FIG. 4A). Cells from A*02-positive patients (3/4) were recognized with maximum lysis at an E:T ratio of 40:1 ranging between 25,9% and 39,8%.
T cells specific for HLA-A*02-restricted ILR1 were tested on tumor cells from AML patients for a second time to confirm the results obtained in the 1st experiment (9 patients; samples AML-01, -02, -04, -05, -06, -07, -09, -10, -12).
T cells specific for HLA-A*02-restricted ILR2 were tested on tumor cells from AML patients (8 patients; samples AML-01, -02, -04, -05, -06, -07, -10, -12). […] The experiment was conducted a 2nd time with samples from patients […]. In this 2nd experiment, T cells specific for HLA-A*02-restricted ILR2 were tested again on tumor cells from AML patients (4 patients; samples AML-01, -02, -03, -06).

[5] = system: PBMC of HLA-A*02 positive myeloma patients; assay: IFN-γ ELISPOT, myeloma patients; conditions: for # of positively stained spots (IFN-γ ELISPOT): Myeloma patients, HLA-A*02 positive, one value per patient (table line), T cells cultured seven days with IL-2; for samples with significant (>20) CTL responses against peptide: myeloma patient samples, IFN-γ ELISPOT
Method: To determine the frequency of OFA/iLR peptide-specific T cells in patients, ELISPOT-assays were performed using the Interferon-γ-ELISPOT-Kit (Becton Dickinson, Heidelberg, Germany) according to manufacturer's instructions.
Prior to analysis, T cells from patients and healthy donors had been kept in culture for seven days in the presence of Interleukin-2 (IL microgram/10^6 PBMC/milliliter).

“ALCNTDSPL (listed as Homo sapiens) [ILR2]” was tested, and the “patients with significant levels of peptide-specific T cells” value [1] was 40%, the “Evaluable donors with clearly positive T-cell responses” value [2] was 1 and the “Evaluable stimulations with clearly positive T-cell responses” value [2] was 1. The “cytolytic activity of peptide-specific CTL lines” value [3] was “strong cytolytic activity”, the “recognition of cell lines by peptide-specific T cells” value [3] was “All cell lines except Ramos and MEC-1, which do not express the HLA-A*02 allele, and K562, which is deficient for HLA class I gene expression in general, were recognized” and the “recognition of AML cells from A*02-negative patients by peptide-specific T cells” value [4] was “not recognized (4/4); also recorded: not recognized (0/1)”. For the same sequence, the “recognition of AML cells from A*02-positive patients by peptide-specific T cells” value [4] was “recognized in all cases (4/4)”, the “A*02-positive AML patients in whom the peptide is a tumor-associated antigen” value [4] was 100% and the “# of positively stained spots (IFN-γ ELISPOT)” value [5] was 0 per 105 PBMC (4×) and 1 per 105 PBMC (2×) and 3 per 105 PBMC (2×) and 34 per 105 PBMC (3×) and 27 per 105 PBMC and 23 per 105 PBMC and 112 per 105 PBMC. For the same sequence, the “samples with significant (>20) CTL responses against peptide” value [5] was 43%.

With “LLAARAIVAI (listed as Homo sapiens) [ILR1]” the “patients with significant levels of peptide-specific T cells” value [1] was 50%, the “Evaluable donors with clearly positive T-cell responses” value [2] was 5 and the “Evaluable stimulations with clearly positive T-cell responses” value [2] was 29. For the same sequence, the “cytolytic activity of peptide-specific CTL lines” value [3] was “strong cytolytic activity”, the “recognition of cell lines by peptide-specific T cells” value [3] was “All cell lines except MEC-1, which does not express the HLA-A*02 allele, and K562, which is deficient for HLA class I gene expression in general, were recognized” and the “recognition of AML cells from A*02-negative patients by peptide-specific T cells” value [4] was “not recognized (4/4)”. The “recognition of AML cells from A*02-positive patients by peptide-specific T cells” value [4] was “recognized in all cases”, the “A*02-positive AML patients in whom the peptide is a tumor-associated antigen” value [4] was 100% and the “# of positively stained spots (IFN-γ ELISPOT)” value [5] was 3 per 105 PBMC and 4 per 105 PBMC and 56 per 105 PBMC (2×) and 76 per 105 PBMC and 43 per 105 PBMC and 22 per 105 PBMC and 23 per 105 PBMC (2×) and 0 per 105 PBMC (2×) and 112 per 105 PBMC and 1 per 105 PBMC. The “samples with significant (>20) CTL responses against peptide” value [5] was 57%.
